The values that follow are results of earlier work, collected in patent US12721837B2, “Stable pharmaceutical compositions of clonidine” (AZURITY PHARMACEUTICALS, INC., priority 2021, dated 2026).

The conditions of data set [1]: after oral administration.

Take `Clc1cccc(Cl)c1N=C1NCCN1` [Clonidine, N-(2,6-dichlorophenyl)-4,5-dihydro-1H-imidazol-2-amine]: the Solubility in water entry is on record as “freely soluble”. Further, the “Absorption from the gastrointestinal tract” value in data set [1] is listed as “almost completely absorbed”.
